Where two headings read alike, the source gives them in different places.
Experiments:
RSK2 domain1 = target: T1, RSK2 domain1 (Homo sapiens, UniProt P51812); experiment: KiNativ, OCI cells live cell; format: cell-based; conditions: 2 h
T1 construct: RSK2 domain1

MAP3K3 = MAP3K3 (Homo sapiens, UniProt Q99759); experiment: KiNativ, OCI cells live cell; format: cell-based; conditions: 2 h, labeling site Lys1, peptide […]
CDK7 = CDK7 (Homo sapiens, UniProt P50613); experiment: KiNativ, OCI cells live cell; format: cell-based; conditions: 2 h, labeling site Lys2, peptide […]
PIK3C3 = PIK3C3 (Homo sapiens, UniProt Q8NEB9); experiment: KiNativ, OCI cells live cell; format: cell-based; conditions: 2 h, labeling site ATP
TAO1, TAO3 = experiment: KiNativ, OCI cells live cell; format: cell-based, human; conditions: labeling site Lys2, peptide DIKAGNILLTEPGQVK
MAP3K15, MAP3K5, MAP3K6 = experiment: KiNativ, OCI cells live cell; format: cell-based, human; conditions: labeling site Lys1, peptide IAIKEIPER
Erk5 = Erk5 (Homo sapiens, UniProt Q13164); experiment: KiNativ, OCI cells live cell; format: cell-based; conditions: 2 h, labeling site Lys2, peptide […]
AKT1, AKT3 = experiment: KiNativ, OCI cells live cell; format: cell-based, human
TLK2 = TLK2 (Homo sapiens, UniProt Q86UE8); experiment: KiNativ, OCI cells live cell; format: cell-based; conditions: 2 h
NEK9 = target: T2, NEK9 (Homo sapiens, UniProt Q8TD19); experiment: KiNativ, OCI cells live cell; format: cell-based; conditions: 2 h
T2 sequence (Q8TD19 1-979): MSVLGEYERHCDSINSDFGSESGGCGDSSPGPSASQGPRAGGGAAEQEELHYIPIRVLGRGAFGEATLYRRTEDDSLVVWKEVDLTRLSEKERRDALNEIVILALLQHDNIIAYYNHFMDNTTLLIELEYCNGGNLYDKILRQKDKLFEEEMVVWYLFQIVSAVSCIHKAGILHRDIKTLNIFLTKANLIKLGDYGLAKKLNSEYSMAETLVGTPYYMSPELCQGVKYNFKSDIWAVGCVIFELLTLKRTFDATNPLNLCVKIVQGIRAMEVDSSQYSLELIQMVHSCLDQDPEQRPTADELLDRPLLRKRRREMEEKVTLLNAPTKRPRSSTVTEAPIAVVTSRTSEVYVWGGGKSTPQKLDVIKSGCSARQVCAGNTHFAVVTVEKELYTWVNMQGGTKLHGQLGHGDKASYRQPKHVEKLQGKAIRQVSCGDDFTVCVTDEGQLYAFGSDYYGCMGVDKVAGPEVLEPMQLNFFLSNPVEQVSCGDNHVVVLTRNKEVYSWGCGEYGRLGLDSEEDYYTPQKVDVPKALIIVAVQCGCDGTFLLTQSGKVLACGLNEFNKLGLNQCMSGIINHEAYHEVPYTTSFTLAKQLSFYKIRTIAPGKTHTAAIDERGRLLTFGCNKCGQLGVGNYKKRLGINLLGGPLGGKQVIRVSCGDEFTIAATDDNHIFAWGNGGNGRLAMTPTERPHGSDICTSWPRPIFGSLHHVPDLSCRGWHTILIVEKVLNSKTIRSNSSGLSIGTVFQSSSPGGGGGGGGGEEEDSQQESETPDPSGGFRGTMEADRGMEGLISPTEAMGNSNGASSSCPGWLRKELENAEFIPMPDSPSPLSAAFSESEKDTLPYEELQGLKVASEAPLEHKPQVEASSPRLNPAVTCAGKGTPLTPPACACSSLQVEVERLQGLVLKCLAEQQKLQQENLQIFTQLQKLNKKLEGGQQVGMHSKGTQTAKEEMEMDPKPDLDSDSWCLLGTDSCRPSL

FLT3-ITD and TKD mutants = experiment: KdELECT binding assay; conditions: range over FLT3-ITD and TKD mutants
PAN3 = target: T3, PAN3 (Homo sapiens, UniProt Q58A45); experiment: KiNativ, OCI cells live cell; format: cell-based; conditions: 2 h, labeling site ATP
T3 sequence (Q58A45 1-887): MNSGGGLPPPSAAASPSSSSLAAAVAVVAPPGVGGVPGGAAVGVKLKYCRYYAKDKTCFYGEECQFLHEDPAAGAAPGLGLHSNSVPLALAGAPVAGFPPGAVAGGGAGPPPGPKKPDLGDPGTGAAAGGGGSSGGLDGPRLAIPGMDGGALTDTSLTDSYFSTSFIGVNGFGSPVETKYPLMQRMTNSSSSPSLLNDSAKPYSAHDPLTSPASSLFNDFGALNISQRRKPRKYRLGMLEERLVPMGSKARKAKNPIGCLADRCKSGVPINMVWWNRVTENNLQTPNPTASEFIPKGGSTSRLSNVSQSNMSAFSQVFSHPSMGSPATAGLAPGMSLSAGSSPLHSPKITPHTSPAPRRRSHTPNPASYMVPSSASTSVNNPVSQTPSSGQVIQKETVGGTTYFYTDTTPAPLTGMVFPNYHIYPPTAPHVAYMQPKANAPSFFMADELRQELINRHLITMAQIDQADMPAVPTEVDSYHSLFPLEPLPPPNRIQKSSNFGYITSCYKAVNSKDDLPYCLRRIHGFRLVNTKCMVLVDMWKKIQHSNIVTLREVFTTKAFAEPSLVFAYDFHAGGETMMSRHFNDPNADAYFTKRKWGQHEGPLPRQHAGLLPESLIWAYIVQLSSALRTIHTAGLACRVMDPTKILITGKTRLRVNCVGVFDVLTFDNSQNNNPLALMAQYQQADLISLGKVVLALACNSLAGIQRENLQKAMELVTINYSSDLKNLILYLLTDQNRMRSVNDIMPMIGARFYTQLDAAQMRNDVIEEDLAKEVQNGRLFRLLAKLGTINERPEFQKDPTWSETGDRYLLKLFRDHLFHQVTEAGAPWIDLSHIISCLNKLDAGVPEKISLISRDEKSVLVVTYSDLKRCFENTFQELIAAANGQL

PKR = PKR (Homo sapiens, UniProt P19525); experiment: KiNativ, OCI cells live cell; format: cell-based
PKR, sequence (P19525 whole entry): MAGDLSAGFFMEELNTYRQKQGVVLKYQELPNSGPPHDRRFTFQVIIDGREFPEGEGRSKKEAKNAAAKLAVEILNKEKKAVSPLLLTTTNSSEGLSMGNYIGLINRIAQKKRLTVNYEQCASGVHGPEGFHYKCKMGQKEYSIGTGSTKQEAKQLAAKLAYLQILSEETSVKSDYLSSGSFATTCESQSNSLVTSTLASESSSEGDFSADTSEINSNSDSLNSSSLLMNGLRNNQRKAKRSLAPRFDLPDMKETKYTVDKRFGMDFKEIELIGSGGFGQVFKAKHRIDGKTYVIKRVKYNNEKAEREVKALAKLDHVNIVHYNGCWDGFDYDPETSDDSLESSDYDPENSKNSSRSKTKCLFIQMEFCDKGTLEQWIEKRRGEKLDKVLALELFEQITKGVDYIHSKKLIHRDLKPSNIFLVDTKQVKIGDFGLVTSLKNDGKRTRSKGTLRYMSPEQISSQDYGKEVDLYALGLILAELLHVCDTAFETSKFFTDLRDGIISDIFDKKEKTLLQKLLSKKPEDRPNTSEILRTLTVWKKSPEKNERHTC

TLK2, sequence (Q86UE8 whole entry): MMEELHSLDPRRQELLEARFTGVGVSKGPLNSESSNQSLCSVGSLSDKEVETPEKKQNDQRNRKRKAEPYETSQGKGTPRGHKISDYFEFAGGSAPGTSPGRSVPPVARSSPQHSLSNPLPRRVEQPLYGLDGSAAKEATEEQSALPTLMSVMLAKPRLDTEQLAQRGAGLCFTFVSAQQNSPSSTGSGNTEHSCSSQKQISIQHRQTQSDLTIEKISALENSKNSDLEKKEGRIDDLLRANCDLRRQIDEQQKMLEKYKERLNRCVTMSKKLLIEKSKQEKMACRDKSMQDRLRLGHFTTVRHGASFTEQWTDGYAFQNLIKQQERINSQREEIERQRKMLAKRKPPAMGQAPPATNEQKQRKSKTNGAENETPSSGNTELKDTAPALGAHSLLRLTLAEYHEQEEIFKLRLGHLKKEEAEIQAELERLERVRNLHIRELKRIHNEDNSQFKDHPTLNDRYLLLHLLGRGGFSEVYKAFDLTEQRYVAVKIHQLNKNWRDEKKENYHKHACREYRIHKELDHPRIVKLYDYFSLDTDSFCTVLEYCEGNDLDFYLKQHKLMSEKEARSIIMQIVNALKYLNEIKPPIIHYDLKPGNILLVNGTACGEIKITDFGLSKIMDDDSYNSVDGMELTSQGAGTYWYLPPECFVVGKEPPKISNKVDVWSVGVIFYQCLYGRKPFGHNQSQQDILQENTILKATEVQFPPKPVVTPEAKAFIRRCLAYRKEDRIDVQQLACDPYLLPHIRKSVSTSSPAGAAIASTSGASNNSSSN
T1 sequence (P51812 whole entry, the tested form may be a part): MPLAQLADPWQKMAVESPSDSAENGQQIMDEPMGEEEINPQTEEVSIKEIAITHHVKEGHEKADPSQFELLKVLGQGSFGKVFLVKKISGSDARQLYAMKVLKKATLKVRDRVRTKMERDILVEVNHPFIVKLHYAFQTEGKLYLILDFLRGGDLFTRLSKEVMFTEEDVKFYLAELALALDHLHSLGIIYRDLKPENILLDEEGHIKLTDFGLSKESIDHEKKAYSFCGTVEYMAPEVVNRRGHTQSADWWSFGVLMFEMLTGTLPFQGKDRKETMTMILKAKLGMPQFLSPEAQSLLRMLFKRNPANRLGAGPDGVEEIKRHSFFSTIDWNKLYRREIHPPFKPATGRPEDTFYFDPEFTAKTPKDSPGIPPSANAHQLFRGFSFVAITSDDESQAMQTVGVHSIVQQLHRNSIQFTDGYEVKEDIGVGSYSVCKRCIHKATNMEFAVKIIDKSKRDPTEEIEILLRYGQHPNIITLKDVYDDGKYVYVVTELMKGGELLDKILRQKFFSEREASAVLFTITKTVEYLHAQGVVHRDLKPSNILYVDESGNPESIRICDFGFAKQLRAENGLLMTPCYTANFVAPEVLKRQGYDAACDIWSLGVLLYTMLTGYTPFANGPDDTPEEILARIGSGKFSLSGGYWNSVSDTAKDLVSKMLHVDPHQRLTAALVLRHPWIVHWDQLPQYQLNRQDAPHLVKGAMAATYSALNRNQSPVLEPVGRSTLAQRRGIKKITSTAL
PIK3C3, sequence (Q8NEB9 whole entry): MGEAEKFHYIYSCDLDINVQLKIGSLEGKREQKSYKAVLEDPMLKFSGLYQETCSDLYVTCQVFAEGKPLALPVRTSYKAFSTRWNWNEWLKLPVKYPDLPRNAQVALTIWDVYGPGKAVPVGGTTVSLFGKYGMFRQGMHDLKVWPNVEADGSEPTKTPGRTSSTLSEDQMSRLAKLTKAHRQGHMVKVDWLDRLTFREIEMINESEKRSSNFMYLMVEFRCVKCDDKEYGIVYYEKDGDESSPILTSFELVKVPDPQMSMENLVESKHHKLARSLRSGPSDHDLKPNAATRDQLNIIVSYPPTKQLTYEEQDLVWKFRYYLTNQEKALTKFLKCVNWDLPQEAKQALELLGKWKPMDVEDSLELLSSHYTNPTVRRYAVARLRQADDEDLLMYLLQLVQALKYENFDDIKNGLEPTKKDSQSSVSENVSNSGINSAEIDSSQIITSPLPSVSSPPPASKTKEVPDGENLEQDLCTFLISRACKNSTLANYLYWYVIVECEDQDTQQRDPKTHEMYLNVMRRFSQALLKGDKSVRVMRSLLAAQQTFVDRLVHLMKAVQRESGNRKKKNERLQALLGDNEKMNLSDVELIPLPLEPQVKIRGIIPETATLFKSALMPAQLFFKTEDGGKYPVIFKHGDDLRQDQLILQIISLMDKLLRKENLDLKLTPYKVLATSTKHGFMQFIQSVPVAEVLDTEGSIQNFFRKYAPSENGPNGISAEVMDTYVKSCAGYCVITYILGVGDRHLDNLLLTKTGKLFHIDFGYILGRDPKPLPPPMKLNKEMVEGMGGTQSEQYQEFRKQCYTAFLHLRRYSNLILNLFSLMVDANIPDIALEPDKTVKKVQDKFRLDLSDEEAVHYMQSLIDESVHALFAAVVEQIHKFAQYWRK
Erk5, sequence (Q13164 whole entry): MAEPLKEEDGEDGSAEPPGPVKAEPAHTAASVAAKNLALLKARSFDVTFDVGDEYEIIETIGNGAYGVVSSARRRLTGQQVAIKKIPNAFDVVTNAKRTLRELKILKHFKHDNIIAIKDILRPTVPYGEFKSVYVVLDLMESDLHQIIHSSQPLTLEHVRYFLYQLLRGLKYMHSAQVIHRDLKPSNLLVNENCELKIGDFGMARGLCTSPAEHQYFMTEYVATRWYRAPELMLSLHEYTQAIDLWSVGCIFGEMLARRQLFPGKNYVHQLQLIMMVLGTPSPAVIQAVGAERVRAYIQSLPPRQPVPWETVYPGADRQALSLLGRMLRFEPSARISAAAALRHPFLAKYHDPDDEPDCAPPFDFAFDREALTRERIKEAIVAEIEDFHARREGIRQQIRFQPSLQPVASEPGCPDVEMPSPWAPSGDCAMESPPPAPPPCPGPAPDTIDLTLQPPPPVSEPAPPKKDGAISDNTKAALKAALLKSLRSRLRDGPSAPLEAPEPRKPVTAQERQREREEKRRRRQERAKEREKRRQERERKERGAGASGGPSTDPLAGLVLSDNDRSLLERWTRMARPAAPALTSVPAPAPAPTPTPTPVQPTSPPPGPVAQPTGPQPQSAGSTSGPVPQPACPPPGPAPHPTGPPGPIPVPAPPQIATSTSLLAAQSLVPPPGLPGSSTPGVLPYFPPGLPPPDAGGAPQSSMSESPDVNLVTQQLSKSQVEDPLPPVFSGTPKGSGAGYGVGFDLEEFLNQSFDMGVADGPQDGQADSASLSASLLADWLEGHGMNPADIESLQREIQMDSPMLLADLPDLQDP
MAP3K3, sequence (Q99759 whole entry): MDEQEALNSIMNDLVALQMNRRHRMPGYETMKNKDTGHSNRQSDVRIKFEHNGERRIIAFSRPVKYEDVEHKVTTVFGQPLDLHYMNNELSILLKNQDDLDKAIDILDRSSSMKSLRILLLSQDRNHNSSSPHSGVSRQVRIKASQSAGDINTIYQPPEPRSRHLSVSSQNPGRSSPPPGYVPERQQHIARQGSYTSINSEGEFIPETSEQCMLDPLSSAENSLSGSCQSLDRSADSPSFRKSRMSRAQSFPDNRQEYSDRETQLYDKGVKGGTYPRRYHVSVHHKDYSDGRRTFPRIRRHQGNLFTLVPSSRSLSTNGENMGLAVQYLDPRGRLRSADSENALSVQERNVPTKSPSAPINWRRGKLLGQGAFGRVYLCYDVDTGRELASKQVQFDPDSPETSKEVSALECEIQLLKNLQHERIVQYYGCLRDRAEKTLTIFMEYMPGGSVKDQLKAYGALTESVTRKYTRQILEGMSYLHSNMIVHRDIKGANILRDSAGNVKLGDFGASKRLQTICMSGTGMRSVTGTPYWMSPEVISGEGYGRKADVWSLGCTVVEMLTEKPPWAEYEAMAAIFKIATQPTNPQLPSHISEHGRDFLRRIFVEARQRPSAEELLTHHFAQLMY

`CN1CCN(Cc2ccc(Nc3ncc(Cl)c(Nc4ccccc4S(=O)(=O)N(C)C)n3)cc2)CC1` [TP-0903] gave an inhibition at 0.1 µM (RSK2 domain1; labeling site Activation Loop, peptide LTDFGLSKESIDHEKK) of 52.4%, an inhibition at 0.1 µM (RSK2 domain1; labeling site Lys1, peptide QLYAMKVLK) of 48.2% and an inhibition at 0.1 µM (MAP3K3) of 20%. It also gave an inhibition at 0.1 µM (CDK7) of 95.7%, an inhibition at 0.1 µM (PIK3C3; peptide TEDGGKYPVIFKHGDDLR) of -16.8% and an inhibition at 0.1 µM (PIK3C3; peptide TEDGGKYPVIFKHGDDLRQDQLILQIISLMDK) of -18.2%. It also gave an Inhibition (TAO1, TAO3) of 73.9%, an Inhibition (MAP3K15, MAP3K5, MAP3K6) of -14.4% and an inhibition at 0.1 µM (Erk5) of 86.8%. The Inhibition (AKT1, AKT3; labeling site Lys1, peptide YYAMKILK) was -15.9%, the Inhibition (AKT1, AKT3; labeling site Lys2, peptide DLKLENLMLDKDGHIK) was -30.0% and the inhibition at 0.1 µM (TLK2; labeling site Lys1, peptide YVAVKIHQLNK) was -7.2%. For the same molecule, the inhibition at 0.1 µM (TLK2; labeling site Lys2, peptide YLNEIKPPIIHYDLKPGNILLVNGTACGEIK) was -3.1%, the inhibition at 0.1 µM (NEK9) was 37.9% and the inhibition at 0.1 µM (NEK9; OCI cells, live cell, labeling site Activation Loop, peptide LGDYGLAKK, read-out: Inhibition) was 39.6%. For the same molecule, the inhibition at 0.1 µM (NEK9; OCI cells, live cell, labeling site Lys1, peptide RTEDDSLVVWKEVDLTR, read-out: Inhibition) was 40.8%, the Kd (FLT3-ITD and TKD mutants) was 0.79 to 5.6 nM and the inhibition at 0.1 µM (PAN3; peptide IQKSSNFGYITSCYK) was -8.4%. The inhibition at 0.1 µM (PAN3; peptide VMDPTKILITGK) was -9.4%, the Inhibition (PKR; labeling site Activation Loop, peptide IGDFGLVTSLKNDGKR) was -16.3% and the Inhibition (PKR; labeling site Lys2, peptide DLKPSNIFLVDTK) was -9.9%.

— paper PMC7714403 (JCI Insight, 2020)
